Laboratory results from patent US20210382058A1, “PATIENT SELECTION FOR TREATMENT OF MYC POSITIVE CANCERS WITH INDENOISOQUINOLINES” (Purdue Research Foundation, priority 2020, published 2021).
Like-named read-outs stand apart in the source and are kept apart here.

How the values were obtained:
human topoisomerase I = molecular target: T1, human topoisomerase I (Homo sapiens, UniProt P11387); details: relative topoisomerase I inhibition levels, previously determined, six levels (0 - 5, +++++ = 5); cited from earlier work
T1 sequence (P11387 1-765): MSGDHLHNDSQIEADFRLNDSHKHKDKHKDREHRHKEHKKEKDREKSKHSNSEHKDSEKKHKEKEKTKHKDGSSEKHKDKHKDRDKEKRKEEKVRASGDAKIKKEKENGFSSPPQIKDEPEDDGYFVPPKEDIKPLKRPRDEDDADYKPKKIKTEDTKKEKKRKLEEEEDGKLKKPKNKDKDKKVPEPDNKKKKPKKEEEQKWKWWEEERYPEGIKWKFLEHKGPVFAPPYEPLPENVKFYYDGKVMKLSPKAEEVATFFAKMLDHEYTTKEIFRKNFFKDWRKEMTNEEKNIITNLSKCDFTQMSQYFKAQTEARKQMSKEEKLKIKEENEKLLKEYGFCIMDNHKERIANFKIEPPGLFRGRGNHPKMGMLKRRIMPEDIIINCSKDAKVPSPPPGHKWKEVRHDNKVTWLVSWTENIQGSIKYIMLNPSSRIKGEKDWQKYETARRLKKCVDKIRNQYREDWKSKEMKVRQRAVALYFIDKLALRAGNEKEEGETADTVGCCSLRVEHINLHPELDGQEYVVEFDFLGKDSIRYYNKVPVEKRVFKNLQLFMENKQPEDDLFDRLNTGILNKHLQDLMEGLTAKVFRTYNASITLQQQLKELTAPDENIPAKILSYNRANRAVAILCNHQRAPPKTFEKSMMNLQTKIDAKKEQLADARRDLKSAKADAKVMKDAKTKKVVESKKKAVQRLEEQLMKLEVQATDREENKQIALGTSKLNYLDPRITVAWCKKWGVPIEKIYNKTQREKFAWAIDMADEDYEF

[1] = tested on: MYC protein expression in MCF-7 breast cancer cells; assay: Western blotting of MYC protein level in MCF-7 cells; type: cell-based, human
Procedure, shortened: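 MCF-7 cells were exposed to compounds at 0.5, 1, 2 and 4 μM for 24 hours at 37° C. MYC was detected by immunoblot with ECL, using rabbit anti-MYC (1:1000) and anti-GAPDH (1:2000) as loading control.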

NCI-60 cancer cell lines = assay: NCI-60 cancer cell line drug screen (GI50, MGM); type: cell-based, human; details: for GI50: read-out: Antiproliferative Activities [GI50 (μM)]
Method: Cancer cells were incubated with the test compounds at five concentrations ranging from 100 μM to 10 nM for 48 h. […] The approximate average of GI50 values across the entire panel of NCI-60 cancer cell lines for each compound was recorded as the MGM value.

For COc1cnc2c(c1)C(=O)c1c-2n(CCCNC(C)C)c(=O)c2cc(F)ccc12 [Compound 5], the “Top1 Inhibiton” value (human topoisomerase I) is given as “++ (medium inhibition, ++, MYC expression inhibited at 2.0 μM, or no clear dose-dependent MYC inhibition)”, the minimal effective concentration ([1]; Homo sapiens, MCF7, western blotting, MCF-7 cells, 0.5, 1, 2, and 4 μM, 24 hours, read-out: MYC Inhibition) is given as 0.5 to 1 µM and the “MYC-inhibitory effect (MYC protein, western blot)” value ([1]; MCF-7, 0.5, 1, 2, and 4 μM, 24 h) is given as “clear MYC-inhibitory effect”. The GI50 (NCI-60 cancer cell lines; Homo sapiens, 786-0, Renal Cancer, 786-0) was 0.12 µM, the GI50 (NCI-60 cancer cell lines; Homo sapiens, A498, Renal Cancer, A498) was 0.2 µM and the GI50 (NCI-60 cancer cell lines; Homo sapiens, A549, Non-Small Cell Lung Cancer, A549/ATCC) was 0.07 µM. The GI50 (NCI-60 cancer cell lines; Homo sapiens, ACHN, Renal Cancer, ACHN) was 0.06 µM, the GI50 (NCI-60 cancer cell lines; Homo sapiens, BT-549, Breast Cancer, BT-549) was 0.66 µM and the GI50 (NCI-60 cancer cell lines; Homo sapiens, CCRF-CEM, Leukemia, CCRF-CEM) was 0.11 µM. For the same molecule, the GI50 (NCI-60 cancer cell lines; Homo sapiens, COLO 205, Colon Cancer, COLO 205) was 0.09 µM, the GI50 (NCI-60 cancer cell lines; Homo sapiens, DU-145, Prostate Cancer, DU-145) was 0.21 µM and the GI50 (NCI-60 cancer cell lines; Homo sapiens, EKVX, Non-Small Cell Lung Cancer, EKVX) was 0.3 µM. The GI50 (NCI-60 cancer cell lines; Homo sapiens, HCC 2998, Colon Cancer, HCC-2998) was 0.4 µM, the GI50 (NCI-60 cancer cell lines; Homo sapiens, HCT-15, Colon Cancer, HCT-15) was 0.16 µM and the GI50 (NCI-60 cancer cell lines; Homo sapiens, HCT-116, Colon Cancer, HCT-116) was 0.09 µM. It also gave a GI50 (NCI-60 cancer cell lines; Homo sapiens, HL-60, Leukemia, HL-60(TB)) of 0.16 µM, a GI50 (NCI-60 cancer cell lines; Homo sapiens, HOP-62, Non-Small Cell Lung Cancer, HOP-62) of 0.11 µM and a GI50 (NCI-60 cancer cell lines; Homo sapiens, HOP-92, Non-Small Cell Lung Cancer, HOP-92) of 0.28 µM. It also gave a GI50 (NCI-60 cancer cell lines; Homo sapiens, HT-29, Colon Cancer, HT29) of 0.07 µM, a GI50 (NCI-60 cancer cell lines; Homo sapiens, Hs-578T, Breast Cancer, HS 578T) of 0.75 µM and a GI50 (NCI-60 cancer cell lines; Homo sapiens, IGROV-1, Ovarian Cancer, IGROV1) of 0.21 µM. For the same molecule, the GI50 (NCI-60 cancer cell lines; Homo sapiens, K562, Leukemia, K-562) was 0.13 µM, the GI50 (NCI-60 cancer cell lines; Homo sapiens, KM12, Colon Cancer, KM12) was 0.17 µM and the GI50 (NCI-60 cancer cell lines; Homo sapiens, LOX IMVI, Melanoma, LOX IMVI) was 0.11 µM. For the same molecule, the GI50 (NCI-60 cancer cell lines; Homo sapiens, Leukemia, SR) was 0.08 µM, the GI50 (NCI-60 cancer cell lines; Homo sapiens, MCF7, Breast Cancer, MCF7) was 0.03 µM and the GI50 (NCI-60 cancer cell lines; Homo sapiens, MDA-MB-231, Breast Cancer, MDA-MB-231/ATCC) was 0.4 µM. For the same molecule, the GI50 (NCI-60 cancer cell lines; Homo sapiens, MDA-MB-435, Melanoma, MDA-MB-435) was 0.31 µM, the GI50 (NCI-60 cancer cell lines; Homo sapiens, MDA-MB-468, Breast Cancer, MDA-MB-468) was 0.23 µM and the GI50 (NCI-60 cancer cell lines; Homo sapiens, MOLT-4, Leukemia, MOLT-4) was 0.04 µM. It also gave a GI50 (NCI-60 cancer cell lines; Homo sapiens, Malme-3M, Melanoma, MALME-3M) of 0.2 µM, a GI50 (NCI-60 cancer cell lines; Homo sapiens, Melanoma, M14) of 0.23 µM and a GI50 (NCI-60 cancer cell lines; Homo sapiens, NCI-H23, Non-Small Cell Lung Cancer, NCI-H23) of 0.18 µM. For the same molecule, the GI50 (NCI-60 cancer cell lines; Homo sapiens, NCI-H226, Non-Small Cell Lung Cancer, NCI-H226) was 0.15 µM, the GI50 (NCI-60 cancer cell lines; Homo sapiens, NCI-H322M, Non-Small Cell Lung Cancer, NCI-H322M) was 0.32 µM and the GI50 (NCI-60 cancer cell lines; Homo sapiens, NCI-H460, Non-Small Cell Lung Cancer, NCI-H460) was 0.04 µM. The GI50 (NCI-60 cancer cell lines; Homo sapiens, NCI-H522, Non-Small Cell Lung Cancer, NCI-H522) was 0.04 µM, the GI50 (NCI-60 cancer cell lines; Homo sapiens, OVCAR-3, Ovarian Cancer, OVCAR-3) was 0.19 µM and the GI50 (NCI-60 cancer cell lines; Homo sapiens, OVCAR-4, Ovarian Cancer, OVCAR-4) was 0.3 µM. For the same molecule, the GI50 (NCI-60 cancer cell lines; Homo sapiens, OVCAR-5, Ovarian Cancer, OVCAR-5) was 0.28 µM, the GI50 (NCI-60 cancer cell lines; Homo sapiens, OVCAR-8, Ovarian Cancer, OVCAR-8) was 0.14 µM and the GI50 (NCI-60 cancer cell lines; Homo sapiens, Ovarian Cancer, NCl/ADR-RES) was 0.23 µM. For the same molecule, the GI50 (NCI-60 cancer cell lines; Homo sapiens, Prostate Cancer, PC-3) was 0.28 µM, the GI50 (NCI-60 cancer cell lines; Homo sapiens, RPMI-8226, Leukemia, RPMI-8226) was 0.15 µM and the GI50 (NCI-60 cancer cell lines; Homo sapiens, RXF 393, Renal Cancer, RXF 393) was 0.23 µM. For the same molecule, the GI50 (NCI-60 cancer cell lines; Homo sapiens, Renal Cancer, U0-31) was 0.08 µM, the GI50 (NCI-60 cancer cell lines; Homo sapiens, SF-268, CNS Cancer, SF-268) was 0.21 µM and the GI50 (NCI-60 cancer cell lines; Homo sapiens, SF-295, CNS Cancer, SF-295) was 0.09 µM. It also gave a GI50 (NCI-60 cancer cell lines; Homo sapiens, SF-539, CNS Cancer, SF-539) of 0.25 µM, a GI50 (NCI-60 cancer cell lines; Homo sapiens, SK-MEL-2, Melanoma, SK-MEL-2) of 0.51 µM and a GI50 (NCI-60 cancer cell lines; Homo sapiens, SK-MEL-5, Melanoma, SK-MEL-5) of 0.16 µM. For the same molecule, the GI50 (NCI-60 cancer cell lines; Homo sapiens, SK-MEL-28, Melanoma, SK-MEL-28) was 0.94 µM, the GI50 (NCI-60 cancer cell lines; Homo sapiens, SK-OV-3, Ovarian Cancer, SK-OV-3) was 0.22 µM and the GI50 (NCI-60 cancer cell lines; Homo sapiens, SN12C, Renal Cancer, SN12C) was 0.16 µM. It also gave a GI50 (NCI-60 cancer cell lines; Homo sapiens, SNB-19, CNS Cancer, SNB-19) of 0.18 µM, a GI50 (NCI-60 cancer cell lines; Homo sapiens, SNB-75, CNS Cancer, SNB-75) of 0.22 µM and a GI50 (NCI-60 cancer cell lines; Homo sapiens, SW-620, Colon Cancer, SW-620) of 0.12 µM. The GI50 (NCI-60 cancer cell lines; Homo sapiens, T47D, Breast Cancer, T-47D) was 0.08 µM, the GI50 (NCI-60 cancer cell lines; Homo sapiens, TK-10, Renal Cancer, TK-10) was 0.18 µM and the GI50 (NCI-60 cancer cell lines; Homo sapiens, U-251, CNS Cancer, U251) was 0.08 µM. For the same molecule, the GI50 (NCI-60 cancer cell lines; Homo sapiens, UACC-62, Melanoma, UACC-62) was 0.27 µM, the GI50 (NCI-60 cancer cell lines; Homo sapiens, UACC-257, Melanoma, UACC-257) was 0.47 µM and the mean GI50 across NCI-60 panel (MGM) (NCI-60 cancer cell lines; Homo sapiens, average of GI50 values across the entire panel of NCI-60 cancer cell lines) was 0.165 µM. The “anticancer activity (GI50 profile) in words” value (NCI-60 cancer cell lines; NCI-60 panel) was “more potent anticancer activities compared to compounds 4 and 20”.
